Literature values in patent publication US20260232602A1, “DRUG DELIVERY SYSTEMS AND METHODS COMPRISING POLYSIALIC ACID AND/OR OTHER POLYMERS” (Universidade de Santiago de Compostela, priority 2017, published 2026).

Settings: stated with the drug's Mw and supplier

| SMILES | Log P |
| --- | --- |
| CC(=O)O[C@@]12CO[C@@H]1C[C@H](O)[C@@]1(C)C(=O)[C@H](O)C3=C(C)[C@@H](OC(=O)[C@H](O)[C@@H](NC(=O)OC(C)(C)C)c4ccccc4)C[C@@](O)([C@@H](OC(=O)c4ccccc4)[C@H]21)C3(C)C [docetaxel] | 2.6 |
| C/C(=C\c1csc(C)n1)[C@@H]1C[C@@H]2O[C@]2(C)CCC[C@H](C)[C@H](O)[C@@H](C)C(=O)C(C)(C)[C@@H](O)CC(=O)O1 [patupilone] | 3.7 |
